Counter-ions that a name gives are not always drawn. Like-named read-outs stand apart in the source and are kept apart here.
Tests used:
[1] = Solid-state chemical stability under different storage conditions (liquid chromatography); format: physicochemical; settings: for Stability of solid state compound, 0 Days (%): liquid chromatography
Procedure: The HPLC conditions were as follows:
Configuration of test solution: appropriate amount of sample was dissolved and diluted with a diluent (0.03 mol/L phosphate buffer-acetonitrile (80:20)) to make 1 mg/mL solution.
Chromatographic conditions: according to the high performance liquid chromatography (Chinese Pharmacopoeia 2020 version of the four general 0512) test, using octadecyl-bonded silica gel (Agilent Eclipse Plus C18, 4.6 mm*250 mm, 5.0 μm, P/N for 959990-902 or a chromatographic column with equivalent performance) as a filler; 0.03 mol/L phosphate buffer (4.08 g of potassium dihydrogen phosphate was dissolved in 1000 ml of water and shaken well) was used as mobile phase A and acetonitrile as mobile phase B at a flow rate of 1 ml/min, the column temperature was 30° C., the detection wavelength was 220 nm, the injection volume was 10 ul, and the sample plate was controlled to 8° C. and running for 65 min. Gradient elution was performed according to the following table: […]
Configuration of test solution: appropriate amount of the product was dissolved and diluted with a diluent (0.1% phosphoric acid-acetonitrile (80:20)) to make 1 mg/mL solution.
Chromatographic conditions: according to the high performance liquid chromatography (Chinese Pharmacopoeia 2020 version of the four general 0512) test, using octadecyl bonded silica gel (Agilent Eclipse Plus C18, 4.6 mm*250 mm, 5.0 μm, P/N 959990-902 or a chromatographic column with equivalent performance) as a filler; 0.1% phosphate buffer (1 ml of phosphoric acid in 1000 ml of water and shake well) as mobile phase A, acetonitrile as mobile phase B, flow rate of 1 ml/min, column temperature of 30° C., detection wavelength of 220 nm, injection volume of 10 ul, running for 48 minutes. Gradient elution was performed according to the following table: […]

C57 mice = test: Forced swim test of oral administration in mice (antidepressant activity); format: in vivo; settings: Mus musculus, po, reduction of immobility time vs blank group, single gavage 20 mg/kg
Procedure: To investigate the effects of different compounds on depression-like behavior in C57 mice by single oral administration of 20 mg/kg for 1 h and 24 h followed by forced swimming experiment, respectively.
The experimental animals were 6-week-old C57 mice, male, C57 breed mice purchased from Shanghai Slaughter Laboratory Animal Co. Ltd, weighing 20.45±0.19 g. The animals arrived at the Animal Breeding Center of the Shanghai Institute of Pharmaceutical Sciences, Chinese Academy of Sciences (Animal Production License: SCXK9[Shanghai]2004-0002, Use License: SYXK [Shanghai]2003-0029) before the experiments and were acclimated to the animal facilities for more than 3 days, 6 animals/cage were feed. The feeding environment was room temperature 23±0.2° C. and 12/12 h day/night alternating light and dark. Prior to behavioral testing, animals were moved to the behavioral testing room 2 hours in advance to acclimatize them to the environment and reduce their nervousness.
Preparation of the test material: the test compounds were weighed and dissolved in 0.9% NaCl solution, mixed well, and prepared into 1 mg/ml and 2 mg/ml solution for use, respectively.
24 h prior to drug administration, mice were placed in a cylindrical tank to acclimatize to the water environment for 10 min. On the day of the behavioral test, the animals were administered the drug once, by gavage/intraperitoneal injection at 1 h and 24 h prior to the behavioral test, respectively (as shown in Table 1).
The antidepressant effect of the compounds was evaluated by their ability to cause a reduction in the immobility time of the animals in the forced swim test compared to the blank group.

Row | SMILES | Stability of solid state compound, 0 Days (%) ([1]; 40° C., 75% RH) | Stability of solid state compound, 10 Days (%) ([1]; 40° C., 75% RH) | Stability of solid state compound, 30 Days (%) ([1]; 40° C., 75% RH) | Stability of solid state compound, 5 Days (%) ([1]; 40° C., 75% RH) | further results
1 | Cl.N[C@]1(c2ccc(C(F)(F)F)cc2)CCC[C@H](O)C1=O [Comparative compound 2, reference compound] | 99.48% | 97.11% | 94.26% |  | Stability of solid state compound, 60 Days (%) ([1]; 40° C., 75% RH, 60 days): 89.97%
2 | C[C@@H]1CC[C@@](N)(c2ccccc2Cl)C(=O)[C@@H]1O [Comparative compound 3, reference compound] |  |  |  |  | inhibition in vivo at 20 mg/kg (C57 mice; test 1 h after dosing, read-out: 1 h inhibition (%)): 22.6 ± 2.7%; inhibition in vivo at 20 mg/kg (C57 mice; test 24 h after dosing, read-out: 24 h inhibition (%)): 23.7 ± 3.2%
3 | Cl.N#Cc1cccc(C2(N)CCCC(O)C2=O)c1 (stereo not shown) [Comparative compound 7, reference compound] | 98.1% |  |  | 87.5% | 
4 | CN[C@@]1(c2ccc(C(F)(F)F)cc2)CCC[C@@H](O)C1=O.Cl [Comparative compound 8, reference compound] | 98.4% |  |  | 73.0% | 
5 | CCN[C@@]1(c2ccc(C(F)(F)F)cc2)CCC[C@@H](O)C1=O.Cl [Comparative compound 9, reference compound] |  |  |  |  | Stability of solid state compound, 0 Days (%) ([1]; 25° C., 60% RH): 98.2%; Stability of solid state compound, 10 Days (%) ([1]; 25° C., 60% RH): 96.8%; Stability of solid state compound, 30 Days (%) ([1]; 25° C., 60% RH): 61%
6 | CC(=O)N[C@@]1(c2ccc(C(F)(F)F)cc2)CCC[C@@H](O)C1=O [Comparative compound 10, reference compound] |  |  |  |  | Stability of solid state compound, 0 Days (%) ([1]; 25° C., 60% RH): 99.77%; Stability of solid state compound, 10 Days (%) ([1]; 25° C., 60% RH): 99.69%; Stability of solid state compound, 30 Days (%) ([1]; 25° C., 60% RH): 97.51%
7 | CNC1(c2cccc(OC(F)(F)F)c2)CCCC(O)C1=O.Cl (stereo not shown) [Comparative compound 11, reference compound] | 98.15% | 75.44% |  | 87.8% | 
8 | Cl.NC1(c2cccc(F)c2F)CCCC(O)C1=O (stereo not shown) [Comparative compound 12, reference compound] | 97.16% |  | 94.59% |  | 
9 | Cl.NC1(c2c(F)cc(F)cc2F)CCCC(O)C1=O (stereo not shown) [Comparative compound 13, reference compound] | 98.31% | 97.05% | 96.04% |  | 
10 | Cl.NC1(c2cccc(OC(F)(F)F)c2F)CCCC(O)C1=O (stereo not shown) [Comparative compound 14, reference compound] | 98.58% |  | 93.96% |  | 
11 | CC(=O)N[C@@]1(c2ccc(C(F)(F)F)cc2)CCC[C@](C)(O)C1=O [Compound 37, N-((1R,3S)-3-hydroxy-3-methyl-2-oxo-1-(4-(trifluoromethyl)phenyl)cyclohexyl)acetamide] |  |  |  |  | Stability of solid state compound, 0 Days (%) ([1]; 25° C., 60% RH): 99.69%; Stability of solid state compound, 10 Days (%) ([1]; 25° C., 60% RH): 99.65%; Stability of solid state compound, 30 Days (%) ([1]; 25° C., 60% RH): 99.69%
12 | CC1(O)CCCC(N)(c2cccc(OC(F)(F)F)c2F)C1=O (stereo not shown) [Compound 43, 2-amino-2-(2-fluoro-3-(trifluoromethoxy)phenyl)-6-hydroxy-6-methylcyclohexan-1-one hydrochloride] | 98.73% |  | 98.75% |  | 
13 | CC1(O)CCCC(N)(c2c(F)cc(F)cc2F)C1=O (stereo not shown) [Compound 44, 2-amino-6-hydroxy-6-methyl-2-(2,4,6-trifluorotoluene)cyclohexan-1-one hydrochloride] | 98.45% |  | 98.35% | 98.53% | 
14 | CC1(O)CCCC(N)(c2cccc(C#N)c2)C1=O.Cl (stereo not shown) [Compound 47, 3-(1-amino-3-hydroxy-3-methyl-2-oxocyclohexyl)benzonitrile hydrochloride] | 98.89% |  | 98.86% | 98.86% | 
15 | CC1(O)CCCC(N)(c2cccc(F)c2F)C1=O.Cl (stereo not shown) [Compound 48, 2-amino-2-(2,3-difluorophenyl)-6-hydroxy-6-methylcyclohexan-1-one hydrochloride] | 99.25% | 99.28% | 99.17% | 99.28% | 
16 | CNC1(c2cccc(OC(F)(F)F)c2F)CCCC(C)(O)C1=O.Cl (stereo not shown) [Compound 56, 2-(2-fluoro-3-(trifluoromethoxy)phenyl)-6-hydroxy-6-methyl-2-(methylamino)cyclohexan-1-one hydrochloride] | 99.61% |  | 99.50% |  | 
17 | CNC1(c2c(F)cc(F)cc2F)CCCC(C)(O)C1=O.Cl (stereo not shown) [Compound 58, 2-hydroxy-2-methyl-6-methylamino-6-(2,4,6-trifluorotoluene)cyclohexan-1-one hydrochloride] | 99.34% | 99.12% | 99.14% |  | 
18 | CNC1(c2cccc(C#N)c2)CCCC(C)(O)C1=O.Cl (stereo not shown) [Compound 63, 3-(3-hydroxy-3-methyl-1-methylamino-2-oxocyclohexyl)benzonitrile hydrochloride] | 99.67% | 99.66% | 99.66% | 99.66% | 
19 | CN[C@@]1(c2cccc(C#N)c2)CCC[C@](C)(O)C1=O.Cl [Compound 64, 3-((1R, 3S)-3-hydroxy-3-methyl-1-methylamino-2-oxocyclohexyl)benzonitrile hydrochloride] | 99.88% | 99.89% | 99.85% | 99.88% | 
20 | CNC1(c2cccc(OC(F)(F)F)c2)CCCC(C)(O)C1=O.Cl (stereo not shown) [Compound 67, 2-hydroxy-2-methyl-6-methylamino-6-(3-(trifluoromethoxy)phenyl)cyclohexan-1-one hydrochloride] | 99.82% | 99.73% | 99.57% |  | 
21 | CN[C@@]1(c2ccccc2Cl)CCC[C@](C)(O)C1=O.Cl [Compound 69, (2R,6S)-2-(2-chlorophenyl)-6-hydroxy-6-methyl-2-methylaminocyclohexan-1-one hydrochloride] | 98.36% | 98.43% | 98.34% |  | 
22 | CN[C@@]1(c2ccccc2Cl)CCC[C@@](C)(O)C1=O.Cl [Compound 70, (2R,6R)-2-(2-chlorophenyl)-6-hydroxy-6-methyl-2-methylaminocyclohexan-1-one hydrochloride] | 97.84% | 97.84% | 97.82% |  | 
23 | CN(C)[C@@]1(c2ccc(C(F)(F)F)cc2)CCC[C@@](C)(O)C1=O.Cl [Compound 72, (2R,6R)-2-dimethylamino-6-hydroxy-6-methyl-2-(4-(trifluoromethyl)phenyl)cyclohexan-1-one hydrochloride] | 99.69% | 99.62% | 99.61% | 99.66% | 
24 | CN[C@]1(c2ccc(C(F)(F)F)cc2)CCC[C@@](C)(O)C1=O.Cl [Compound 75, (2R,6S)-2-hydroxy-2-methyl-6-methylamino-6-(4-(trifluoromethyl)phenyl)cyclohexan-1-one hydrochloride] | 99.85% | 99.78% | 99.77% |  | 

— patent US20250177324A1, “A[…], AND PREPARATION METHOD THEREFOR AND USE THEREOF” (SHANGHAI ZHIGEN PHARMACEUTICAL & TECHNOLOGY CO. LTD., priority 2022, published 2025)
